This is an account of results in US11691981B2, “Heterocyclic compounds, preparation methods therefor, and methods of uses thereof” (INVENTISBIO CO., LTD., priority 2019, dated 2023).

In one series the target is TGFβR2 (Homo sapiens (Human), UniProt P37173). Nature of the series: TGFβR2 kinase inhibition assay (ADP-Glo). To be noted: 10 uM ATP, 120 min room temperature. Format: biochemical. On the procedure: The TGFβR2 enzyme reaction was carried out as follows: 50 nL of compound in DMSO (or DMSO controls) were stamped into 384 white, low-volume plates. 2.5 μL of 2× enzyme solution (final enzyme concentration was 3 ng/uL in 40 mMTris, 7.5; 20 mM MgCl2; 0.1 mg/mL BSA; 1 mM DTT) was dispensed into assay plate. The plate was then sealed and spun at 1000 rpm for 30 s and incubated at room temperature for 10 min. Followed by addition of 2.5 μL of 2× substrate solution that contains both ATP (to make a final concentration of 10 uM) and TGFβR2 substrate (final concentration of 0.2 ug/uL). The plate was then sealed and spun at 1000 rpm for 30 s and the reaction was then incubated at room temperature for 120 min. After that 5 μL ADP-Glo™ Reagent was added into the assay wells to stop the reaction and deplete unconsumed ATP for 40 min at room temperature; then, 10 μL of Detection Reagent was added into the assay wells, followed by 40 min incubation to develop luminescence. The luminescence signal was then collected on Envision 2104 plate reader.
TGFβR2, sequence (P37173 23-567): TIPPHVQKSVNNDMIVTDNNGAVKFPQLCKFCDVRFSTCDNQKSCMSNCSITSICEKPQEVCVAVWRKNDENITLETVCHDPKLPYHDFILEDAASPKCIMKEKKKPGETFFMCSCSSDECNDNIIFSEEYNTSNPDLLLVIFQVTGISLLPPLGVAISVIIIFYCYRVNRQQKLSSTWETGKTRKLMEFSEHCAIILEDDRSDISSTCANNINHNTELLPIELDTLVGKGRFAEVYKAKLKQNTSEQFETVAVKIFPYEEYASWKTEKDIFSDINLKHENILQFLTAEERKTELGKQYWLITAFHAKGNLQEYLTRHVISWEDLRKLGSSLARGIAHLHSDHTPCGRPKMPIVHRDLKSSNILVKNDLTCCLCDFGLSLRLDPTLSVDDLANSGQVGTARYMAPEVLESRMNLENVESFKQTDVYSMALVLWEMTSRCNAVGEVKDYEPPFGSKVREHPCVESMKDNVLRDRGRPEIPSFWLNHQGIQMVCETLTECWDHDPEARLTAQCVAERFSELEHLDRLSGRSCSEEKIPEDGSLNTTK
(ADP-Glo turns the ADP formed in a reaction into a luminescent signal.)

For another series, the target named is TGFβR1 (Homo sapiens (Human), UniProt P36897). Nature of the series: TGFβR1 kinase inhibition assay (ADP-Glo Kinase Assay). To be noted: 40 nM TGFβR1 in 2x enzyme mix, 5.4 μM ATP in 2x substrate mix, 120 min RT. Format: biochemical. How it is done: TGFβR1 kinase assay was performed according to the instruction manual of the ADP-Glo™ Kinase Assay kit provided by Promega. Prepare 1× Kinase buffer (50 mM Tris pH7.5, 0.1% BSA, 10 mM MgCl2, 1 mM DTT). Before activation reaction was started, Compounds were dissolved in DMSO and make 100× solution with 3-fold serial dilution for a total of 10 concentrations. Transfer 50 nL compounds to 384-well plate according to plate map using the automated liquid handler. […] Add 5 μL ADP-Glo Reagent to terminate the kinase reaction and deplete the remaining ATP, incubate at RT for 60 minutes. Add 10 μL Kinase Detection Reagent to convert ADP to ATP and allow the newly synthesized ATP to be measured using a luciferin reaction, incubate at RT for 30 minutes. Collect luminescence data with Envision.
TGFβR1, sequence (P36897 34-503): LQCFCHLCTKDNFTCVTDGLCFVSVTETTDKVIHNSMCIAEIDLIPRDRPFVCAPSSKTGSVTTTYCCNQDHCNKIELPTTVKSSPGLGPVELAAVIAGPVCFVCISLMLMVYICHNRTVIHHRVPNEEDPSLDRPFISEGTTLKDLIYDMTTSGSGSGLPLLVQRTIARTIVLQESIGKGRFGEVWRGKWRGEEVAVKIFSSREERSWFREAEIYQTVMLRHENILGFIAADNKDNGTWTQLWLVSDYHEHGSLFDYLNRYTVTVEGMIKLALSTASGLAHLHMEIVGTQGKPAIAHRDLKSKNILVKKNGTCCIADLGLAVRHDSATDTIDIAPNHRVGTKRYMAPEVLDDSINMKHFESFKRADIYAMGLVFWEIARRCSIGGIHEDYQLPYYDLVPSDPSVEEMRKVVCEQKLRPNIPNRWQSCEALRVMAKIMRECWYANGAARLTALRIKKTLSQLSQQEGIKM

The subject of a further series is P-glycoprotein (MDR1). Nature of the series: P-glycoprotein substrate potential / permeability in MDR1-transfected MDCK cells. Format: in vitro ADME. As to conditions: dog, pH 7.4; for Papp A→B at 2 h, 1 µM / Papp B→A at 2 h, 1 µM: MDCK-MDR1, 1 μM, two hours; for Papp A→B at 2 h, 1 µM: apical to basolateral; for Papp B→A at 2 h, 1 µM: basolateral to apical; for efflux ratio at 2 h, 1 µM: MDCK-MDR1, Papp (B-A)/Papp (A-B). On the procedure:
(§1) MDCK-MDR1 cells were seeded into 96-well HTS Transwell plate at the density of 5.45×10^5/cm^2. Cells were cultivated for 4-7 days before the transport assay. Transepithelial electrical resistance (TEER) of MDCK-MDR1 monolayer was measured before the experiment with the Millicell Epithelial Volt-Ohm measuring system.
(§2) Transport assay: Cell monolayers were pre-incubated in transport medium (TM, HBSS with 25 mM HEPES, pH 7.4) for 30 min at 37° C. After preincubation, the study was initiated by adding the test compound to the donor side and TM to the receiver side. Compound transport was assessed at 1 μM in two directions (apical, AP to basolateral, BL and BL to AP) and the study was carried out in the presence and absence of P-gp inhibitor verapamil in both AP and BL compartments. After two hours incubation, aliquots of 50 μL from donor or receiver side were removed and mixed with 4 volumes of acetonitrile containing internal standards (200 nM alprazolam, 200 nM labetalol, 2 μM ketoprofen). Samples were analyzed by UPLC-MS/MS. All incubations were performed in duplicate. After the transport experiment, Lucifer Yellow leakage was measured in a fluorescence plate reader at 485 nm excitation and 530 nm emission.
(§3) Data Analysis: All calculations were carried out using Microsoft Excel. Peak areas are determined from extracted ion chromatograms.
(§4) The apparent permeability coefficient (Papp), in units of centimeter per second, was calculated for MDCK-MDR1 drug transport assays using the following equation: […]
(§5) Where VA is the volume (in mL) in the acceptor well, Area is the surface area of the membrane (0.143 cm2 for Transwell-96 Well Permeable Supports), and time is the total transport time in seconds.
(§6) The efflux ratio was determined using the following equation: […]
(§7) Where Papp (B-A) indicates the apparent permeability coefficient in basolateral to apical direction, and Papp (A-B) indicates the apparent permeability coefficient in apical to basolateral direction.

The next series concerns pooled human hepatocytes. Briefly: Human hepatocyte clearance study. Format: in vitro ADME. To be noted: human hepatocytes; for Human Hepatocyte Remaining Percentage @ 120 min: 0.5×10^6 viable cells/mL. How it is done: (§8) The in vitro human hepatocyte clearance of compounds described here was studied using pooled human hepatocytes purchased from BioreclamationIVT (Westbury, N.Y., Cat #X008001, Lot #TQJ). The assay was conducted according to manufacturer's instruction. Briefly, 10 mM stock solutions of test compounds and positive control (Verapamil) were prepared in 100% DMSO. Thawing media (50 mL) used in the study consists of: 31 mL Williams E medium (GIBCO Cat #12551-032); 15 mL isotonic percoll (GE Healthcare Cat #17-0891-09); 500 uL 100× GlutaMax (GIBCO Cat #35050); 750 uL HEPES (GIBCO Cat #15630-080); 2.5 mL FBS (Corning Cat #35-076-CVR); 50 uL human insulin (GIBCO Cat #12585-014) and 5 uL dexamethasone (NICPBP). Incubation media is made of Williams E medium supplemented with 1× GlutaMax. Both thawing medium and incubation medium (serum-free) were placed in a 37° C. water bath for at least 15 minutes prior to use. Compound stock solutions were diluted to 100 μM by combining 198 μL of 50% acetonitrle/50% water and 2 μL of 10 mM stock solution. Verapamil was use as positive control in the assay. Vials of cryopreserved hepatocytes were removed from storage and thawed in a 37° C. water bath with gentle shaking. Contents of the vial were poured into the 50 mL thawing medium conical tube. Vials were centrifuged at 100 g for 10 minutes at room temperature. Thawing medium was aspirated and hepatocytes were re-suspended with serum-free incubation medium to yield ˜1.5×10^6 cells/mL. Hepatocyte viability and density were counted using a Trypan Blue exclusion, and then cells were diluted with serum-free incubation medium to a working cell density of 0.5×10^6 viable cells/mL. Then, a portion of the hepatocytes at 0.5×10^6 viable cells/mL was boiled for 5 minutes prior to adding to the plate as negative control to eliminate the enzymatic activity so that little or no substrate turnover should be observed. The boiled hepatocytes were used to prepare negative samples. Aliquots of 198 μL hepatocytes were dispensed into each well of a 96-well non-coated plate. The plate was placed in the incubator on an orbital shaker at 500 rpm for approximately 10 minutes. Aliquots of 2 μL of the 100 μM test compound or positive control were added into respective wells of the non-coated 96-well plate to start the reaction. This assay was performed in duplicate. The plate was incubated in the incubator on an orbital shaker at 500 rpm for the designated time points. Twenty-five microliter of contents were transferred and mixed with 6 volumes (150 μL) of cold acetonitrile with IS (200 nM imipramine, 200 nM labetalol and 200 nM diclofenac) to terminate the reaction at time points of 0, 15, 30, 60, 90 and 120 minutes. Samples were centrifuged at 3,220 g for 25 minutes and aliquots of 150 μL of the supernatants were used for LC-MS/MS analysis. For data analysis, all calculations were carried out using Microsoft Excel. Peak areas were determined from extracted ion chromatograms. The in vitro half-life (t1/2) of parent compound was determined by regression analysis of the percent parent disappearance vs. time curve. The in vitro half-life (in vitro ti) was determined from the slope value: in vitro t1/2=0.693/k. […] Scaling factors for in vivo intrinsic clearance prediction using human hepatocytes are listed as: liver weight (g liver/kg body weight): 25.7; hepatocyte concentration (10^6 cells/g liver): 99; scaling factor: 2544.3.

The nature of series [1]: Human hepatocyte clearance study. Format: in vitro ADME. As to conditions: pooled cryopreserved human hepatocytes (suspension); for hepatocyte CLint at 1 µM / half-life at 1 µM: human; for hepatocyte CLint at 1 µM: read-out: Human In vitro Clint; for half-life at 1 µM: read-out: Human In vitro T1/2; for CLint scaled at 1 µM: human hepatocytes, scaling factor 2544.3, read-out: Human Scale-up Clint. On the procedure: as §8

The subject of another series is MDCK-MDR1 cells. Briefly: P-glycoprotein substrate potential / permeability in MDR1-transfected MDCK cells. Format: in vitro ADME. On the procedure:
as §1, §2, §3, §4, §5, §6, §7

Molecules are shown by their SMILES.

Turning to `Cc1ccc(Oc2ccnc(Nc3ccnc(C(C)(C)O)c3)c2)c(C)n1` [Compound 57], the IC50 at TGFβR2 is greater than 100000 nM. The molecule also came in with an IC50 against TGFβR1 of 21 nM. Also, in the series with P-glycoprotein (MDR1), the Papp A→B at 2 h, 1 µM came to 12.4 ×10⁻⁶ cm/s; the Papp B→A at 2 h, 1 µM came out at 18 ×10⁻⁶ cm/s; the efflux ratio at 2 h, 1 µM amounted to 1.46. Also, the “Human Hepatocyte Remaining Percentage @ 120 min” value in the series on pooled human hepatocytes is given as 89%. Further, in series [1], the hepatocyte CLint at 1 µM turned out to be 2.4 µL/min/1e6 cells, the half-life at 1 µM was found to be 9.73 h and the CLint scaled at 1 µM stood at 6 mL/min/kg.

`CC(C)(O)c1ccc(Nc2cc(Oc3cc(C(F)(F)F)nn3C3CCOCC3)ccn2)cn1` [Compound 11] returned an IC50 at TGFβR2 greater than 100000 nM. In addition, the IC50 on TGFβR1 turned out to be 24 nM. In addition, in the series with P-glycoprotein (MDR1), the Papp A→B at 2 h, 1 µM is 7.38 ×10⁻⁶ cm/s; the Papp B→A at 2 h, 1 µM stood at 6.24 ×10⁻⁶ cm/s; the efflux ratio at 2 h, 1 µM is 0.85. Also, the “Human Hepatocyte Remaining Percentage @ 120 min” value in the series on pooled human hepatocytes turned out to be 71%. In series [1], the hepatocyte CLint at 1 µM is 5.7 µL/min/1e6 cells, the half-life at 1 µM worked out at 4.03 h and the CLint scaled at 1 µM came to 14.6 mL/min/kg.

On to `CC(C)(O)c1cc(Nc2cc(Oc3cc(C(F)(F)F)nn3C3CCOCC3)ccn2)ccn1` [Compound 2], for which the IC50 on TGFβR1 stood at 53 nM. In the series with MDCK-MDR1 cells (MDCK-MDR1, 1 μM, apical to basolateral, two hours), the “Papp (A-B)” value is 4.95 10^−6, cm/s. The “Papp (B-A)” value in the series on MDCK-MDR1 cells (MDCK-MDR1, 1 μM, basolateral to apical, two hours) is on record as 14.87 10^−6, cm/s. In addition, the “Efflux Ratio” value in the series with MDCK-MDR1 cells (MDCK-MDR1, Papp (B-A)/Papp (A-B)) is recorded as 3.00. Also, in the series with pooled human hepatocytes, the “Human In vitro Clint” value is listed as 5.6 μL/min/10^6 cells, the “Human In vitro T1/2” value stood at 4.1 h and the “Human Hepatocyte Remaining Percentage @ 120 min” value is reported as 72%. Also, the “Human Scale-up Clint” value in the series with pooled human hepatocytes (scaling factor 2544.3) turned out to be 14.3 mL/min/kg.

Turning to `CC(C)(O)c1cc(Nc2cc(Oc3cn(C4CC4)nc3C3CCOCC3)ccn2)ccn1` [Compound A, 2-(4-((4-((1-cyclopropyl-3-(tetrahydro-2H-pyran-4-yl)-1H-pyrazol-4-yl)oxy)pyridin-2-yl)amino)pyridin-2-yl)propan-2-ol, reference compound], in the series with P-glycoprotein (MDR1), the Papp A→B at 2 h, 1 µM amounted to 2.75 ×10⁻⁶ cm/s; the Papp B→A at 2 h, 1 µM was 37.8 ×10⁻⁶ cm/s; the efflux ratio at 2 h, 1 µM is 13.7. Moreover, in the series with pooled human hepatocytes, the “Human Hepatocyte Remaining Percentage @ 120 min” value was found to be 48%. Further, in series [1], the hepatocyte CLint at 1 µM came out at 12.5 µL/min/1e6 cells, the half-life at 1 µM turned out to be 1.85 h and the CLint scaled at 1 µM turned out to be 31.7 mL/min/kg.

A word on the IC50: it is the concentration that gives 50% inhibition. A low value points to higher potency. One may read the Papp A→B as the apparent permeability from the apical to the basolateral side of a cell layer. What is called Papp B→A is how fast a substance crosses the layer from the basolateral side. Usually efflux ratio stands for the permeability from basolateral to apical divided by that in the opposite direction, in the common usage.
